Data reported in EP4617273A1, “FUSED TRICYCLIC PARP1 INHIBITOR, PREPARATION METHOD THEREFOR, AND USE THEREOF” (Haihe Biopharma Co., Ltd., priority 2022, dated 2024).
Where two headings read alike, the source gives them in different places.

Columns and labels:
[1] = molecular target: T1, Recombinant human PARP1 protein (Homo sapiens, UniProt P09874); experiment: biochemical
Procedure: (§1) The PARP1/2 inhibitory activity of the compounds of the present invention was tested in an assay using Histone as a substrate.
(§2) Aim of the assay: to test the PARP1/2 enzymatic activity inhibition IC50 values of the compounds of the present application according to established experimental methods.
(§3) 1. Compound Configuration: Dilute the compounds with DMSO in 384-well plates to a 1000-fold final concentration and set aside.
(§4) 1) Dilute Histone with PBS, add 25uL of Histone mixture to each well and incubate for 2 h. 2) Wash each well 5 times using PBST solution. Remove the solution with a clean paper towel.3) Add 75 uL of Blocking buffer to each well and incubate for 1 h at rt. 4) Wash each well 5 times using PBST solution. Remove the solution with a clean paper towel.
(§5) 2) Use 1× Assay buffer to prepare 2.5× final concentration of PARP1 solution. 3) Add 10 uL of enzyme solution to the compound wells and Max control wells; add 10 uL of 1× Assay buffer. […] 6) Centrifuge at 1000 rpm for 60 seconds and incubate at rt for 2 h. 7) Each well was washed 5 times with PBST solution. Remove the solution with a clean paper towel.
(§6) 1) Prepare Streptavidin-HRP solution, add 25 µL to each well, centrifuge at 1000 rpm for 60 sec, and incubate at rt for 30 min. 2) Wash each well 5 times using PBST solution. Remove the solution with a clean paper towel. 3) Add 50 µL of ELISA Chemiluminescent Substrate per well. 4) Centrifuge at 1000 rpm for 60 seconds and read with EnSight after 5 min.
(§7) The inhibition rate was calculated using the following formula: % inhibition = (max signal - compound signal) / (max signal - min signal) × 100, where 'min signal' is the mean value of negative control wells and 'max signal' is the mean value of positive control wells.
(§8) Fitting the quantitative effect curve: using the log value of the concentration as the X-axis and the percentage inhibition as the Y-axis; using the log(inhibitor) vs. response-variable slope method in software GraphPadPrism5 to fit the quantitative effect curve to calculate the IC50 value for the inhibition of the enzyme activity by the compounds of the present invention. The fitting formula is: Y=Bottom+ (Top-Bottom)/(1+10^((logIC50-X)*HillSlope)).

[2] = molecular target: T1, Recombinant human PARP1 protein; experiment: PARP1 enzymatic inhibitory activity, histone substrate, chemiluminescent ELISA; details: PARP2 IC50 over PARP1 IC50
Procedure: as §1, §2, §3, §4, §5, §6, §7, §8

[3] = molecular target: T2, recombinant human PARP2 protein (Homo sapiens, UniProt Q9UGN5); experiment: PARP2 enzymatic inhibitory activity, histone substrate, chemiluminescent ELISA; type: biochemical
T2 construct: purchased BPS 80502
Procedure: The PARP2 inhibitory activity assay was performed as in Experimental Method 1, except that PARP1 solution in step 2 of "3. Ribosylation reaction" was replaced with recombinant human PARP2 solution, and 500 µM NAD+ was not added in step 5 of the ribosylation reaction. Table 1. IC50 for inhibition of PARP1/2 enzymes by compounds of the present invention

[4] = tested on: MDA-MB-436 cells; experiment: MDA-MB-436 cell proliferation inhibition test (CellTiter-Glo, 7 days); type: cell-based; details: Homo sapiens, MDA-MB-436, 168 h, 7 days incubation
Procedure: Human breast cancer MDA-MB-436 (purchased from ATCC) cells were cultured in DMEM medium (supplemented with 10% fetal bovine serum with 1% dual antibody) at 37 °C, 5% CO2. The cells were taken from the logarithmic growth phase, digested and prepare cell suspension witha certain concentration, which was inoculated into 96-well plates. 100 µL of cell suspension was added to each well of the 96-well plates, incubated overnight, then different concentrations of compounds were added, and the cells were incubated in the cell culture incubator for 7 days. At the end of incubation, 50 µL of CellTiter-Glo reagent was added to each well, mixed with a microplate and shaked for 2 min, and left at rt for 60 min, then the fluorescence value was read with a Spark® multimode microplate reader. […] Table 2. proliferation inhibitory activity of compounds of the present invention on MDA-MB-436 cells

[5] = histone substrate, 500 µM NAD+ not added, read-out: PARP2 IC50

T2 sequence (Q9UGN5 whole entry): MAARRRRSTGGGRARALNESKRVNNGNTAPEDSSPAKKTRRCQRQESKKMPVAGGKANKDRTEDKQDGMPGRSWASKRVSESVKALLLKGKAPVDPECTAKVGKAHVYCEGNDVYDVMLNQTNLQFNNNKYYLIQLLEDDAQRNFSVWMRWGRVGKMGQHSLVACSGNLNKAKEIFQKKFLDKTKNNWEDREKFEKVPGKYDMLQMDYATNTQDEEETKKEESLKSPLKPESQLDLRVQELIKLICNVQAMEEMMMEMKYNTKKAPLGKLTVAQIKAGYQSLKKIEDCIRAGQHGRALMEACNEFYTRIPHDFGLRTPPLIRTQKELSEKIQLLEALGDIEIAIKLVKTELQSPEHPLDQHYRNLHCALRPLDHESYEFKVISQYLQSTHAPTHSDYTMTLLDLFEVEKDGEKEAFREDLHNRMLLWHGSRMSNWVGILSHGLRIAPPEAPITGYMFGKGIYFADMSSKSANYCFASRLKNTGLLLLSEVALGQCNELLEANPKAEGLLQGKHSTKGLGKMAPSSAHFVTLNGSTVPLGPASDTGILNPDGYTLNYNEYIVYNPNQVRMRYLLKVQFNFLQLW
T1 sequence (P09874 whole entry): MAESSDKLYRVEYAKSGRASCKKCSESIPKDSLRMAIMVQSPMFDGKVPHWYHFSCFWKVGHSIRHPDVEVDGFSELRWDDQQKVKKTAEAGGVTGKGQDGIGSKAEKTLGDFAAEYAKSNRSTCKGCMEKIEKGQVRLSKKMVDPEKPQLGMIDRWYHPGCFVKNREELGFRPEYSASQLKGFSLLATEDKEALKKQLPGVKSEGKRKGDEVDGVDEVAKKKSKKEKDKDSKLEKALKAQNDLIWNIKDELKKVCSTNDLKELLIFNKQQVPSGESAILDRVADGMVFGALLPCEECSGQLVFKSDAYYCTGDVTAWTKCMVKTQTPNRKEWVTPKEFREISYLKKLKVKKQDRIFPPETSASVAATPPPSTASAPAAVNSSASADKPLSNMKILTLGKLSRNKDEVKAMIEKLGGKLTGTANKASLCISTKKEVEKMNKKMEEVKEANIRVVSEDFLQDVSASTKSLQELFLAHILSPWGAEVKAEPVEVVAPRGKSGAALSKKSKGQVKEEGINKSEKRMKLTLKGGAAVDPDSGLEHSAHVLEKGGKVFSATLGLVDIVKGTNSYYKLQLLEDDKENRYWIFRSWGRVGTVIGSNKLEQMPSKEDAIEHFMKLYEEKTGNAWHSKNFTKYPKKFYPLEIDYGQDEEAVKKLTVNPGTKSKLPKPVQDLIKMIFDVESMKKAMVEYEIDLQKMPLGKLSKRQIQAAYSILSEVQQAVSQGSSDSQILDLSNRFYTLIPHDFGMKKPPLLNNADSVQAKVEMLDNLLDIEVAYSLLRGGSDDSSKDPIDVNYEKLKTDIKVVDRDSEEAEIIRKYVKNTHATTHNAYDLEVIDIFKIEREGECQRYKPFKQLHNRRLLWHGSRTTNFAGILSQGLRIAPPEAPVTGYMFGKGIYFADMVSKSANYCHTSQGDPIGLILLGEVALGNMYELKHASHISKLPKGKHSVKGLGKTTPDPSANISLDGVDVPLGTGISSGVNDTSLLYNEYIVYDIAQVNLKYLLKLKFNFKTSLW

Compound	IC50 [1]	PARP1/2 Fold selectivity [2]	IC50 [3, 5]	IC50 [4]	IC50 [3]
N#Cc1ccc(N2CCN(Cc3ccc4c(c3F)NC(=O)N3CCCN=C43)CC2)nc1 [Compound 188]	1.56 nM	466.3	728 nM	–	–
CNC(=O)c1ccc(OC2CCN(Cc3ccc4c(c3)[nH]c(=O)c3ccnn34)C2)cn1 (stereo not shown) [Compound 75]	16.5 nM	113.5	1870 nM	–	–
CNC(=O)c1ccc(N2CCN(Cc3ccc4c(c3F)NC(=O)N3C[C@H](F)CN=C43)CC2)c(F)n1 [Compound 147]	1 nM	277.7	278 nM	2.1 nM	–
CNC(=O)c1ccc(N2CCN(Cc3ccc4c(c3F)NC(=O)N3C[C@H](C)N=C43)CC2)c(Cl)n1 [Compound 152]	1.5 nM	–	–	21.5 nM	–
CNC(=O)c1ccc(N2CCN(Cc3ccc4c(c3F)NC(=O)N3C[C@@H](C)N=C43)CC2)c(C)n1 [Compound 153]	1.3 nM	–	–	8.1 nM	–
CNC(=O)c1ccc(N2CCN(C(C)c3ccc4c(c3)[nH]c(=O)c3cccn34)CC2)cn1 (stereo not shown) [Compound 6]	0.42 nM	51.7	21.7 nM	–	–
CCNC(=O)c1ccc(N2CCN(Cc3ccc4c(c3F)NC(=O)N3C[C@@H](C)N=C43)CC2)c(Cl)n1 [Compound 185]	1.09 nM	820.2	894 nM	–	–
CNC(=O)c1ccc(N2CCN(Cc3ccc4c(c3F)NC(=O)N3C[C@H](C)N=C43)CC2)c(F)n1 [Compound 133]	1.2 nM	–	–	28.7 nM	–
O=C(NC1CC1)c1ccc(N2CCN(Cc3ccc4c(c3F)NC(=O)N3CCCN=C43)CC2)c(F)n1 [Compound 182]	1.83 nM	299	547 nM	–	–
CNC(=O)c1ccc(N2CCN(Cc3ccc4c(c3)[nH]c(=O)c3cn(C)nc34)CC2)c(F)n1 [Compound 101]	1.7 nM	–	–	9.3 nM	–
CNC(=O)c1ccc(N2CCN(Cc3ccc4c(c3F)NC(=O)N3C4=NCCC3C)CC2)c(F)n1 (stereo not shown) [Compound 150]	17.6 nM	>568	> 10000 nM	–	–
CNC(=O)c1ccc(N2CCN(Cc3ccc4c(c3F)NC(=O)N3CC(C)CN=C43)CC2)c(F)n1 (stereo not shown) [Compound 144]	5.2 nM	>1923	> 10000 nM	–	–
CNC(=O)c1ccc(N2CCN(Cc3ccc4c(c3F)NC(=O)N3CCN=C43)CC2)c(F)n1 [Compound 123]	0.8 nM	–	–	27.4 nM	–
CCNC(=O)c1ccc(N2CCN(Cc3ccc4c(c3F)NC(=O)N3CCCN=C43)CC2)c(Cl)n1 [Compound 183]	0.36 nM	–	–	9.2 nM	–
CNC(=O)c1ccc(N2CCN(C(C)c3ccc4c([nH]c(=O)c5cccn54)c3F)CC2)cn1 (stereo not shown) [Compound 8]	2.04 nM	57.9	118 nM	–	–
CNC(=O)c1ccc(N2CCN(Cc3ccc4c(c3Cl)NC(=O)N3CCN=C43)CC2)c(F)n1 [Compound 134]	2.8 nM	1313.2	3680 nM	–	–
CNC(=O)c1ccc(N2CCN(Cc3ccc4c(c3F)NC(=O)N3C[C@H](F)CN=C43)CC2)c(Cl)n1 [Compound 146]	–	–	–	12.4 nM	–
CNC(=O)c1ccc(N2CCN(C(C)c3ccc4c([nH]c(=O)c5cccn54)c3F)CC2)c(F)n1 (stereo not shown) [Compound 7]	0.38 nM	536.3	204 nM	–	–
CCNC(=O)c1ccc(N2CCN(Cc3ccc4c(c3F)NC(=O)N3CC(F)(F)CN=C43)CC2)c(F)n1 [Compound 186]	0.58 nM	–	–	6.4 nM	–
CNC(=O)c1ccc(N2CCN(C(C)c3ccc4c(c3)[nH]c(=O)c3cnn(C)c34)CC2)c(F)n1 (stereo not shown) [Compound 15]	3.6 nM	86.8	313 nM	–	–
CNC(=O)c1ccc(N2CCN(Cc3ccc4c(c3F)NC(=O)N3C[C@H](C)N=C43)CC2)c(C)n1 [Compound 151]	1.1 nM	–	–	17.5 nM	–

Compound	IC50 [1]	PARP1/2 Fold selectivity [2]	IC50 [3, 5]	IC50 [4]	IC50 [3]
CNC(=O)c1ccc(N2CCN(Cc3ccc4c(c3F)NC(=O)N3CC[C@H](C)N=C43)CC2)c(F)n1 [Compound 142]	5.6 nM	>1756	> 10000 nM	–	–
CNC(=O)c1ccc(N2CCN(C(C)c3ccc4c([nH]c(=O)c5ccnn54)c3F)CC2)c(F)n1 (stereo not shown) [Compound 13]	2.87 nM	1098.6	3150 nM	–	–
CNC(=O)c1ccc(N2CCN(Cc3ccc4c(c3)NC(=O)N3CCCN=C43)CC2)c(Cl)n1 [Compound 191]	0.9 nM	323	296 nM	–	–
CCNC(=O)c1ccc(N2CCN(Cc3ccc4c(c3F)NC(=O)N3C[C@@H](C)N=C43)CC2)c(C)n1 [Compound 34]	1.83 nM	426.4	780 nM	–	–
CNC(=O)c1ccc(N2CCN(C(C)c3ccc4c(c3)[nH]c(=O)c3cccn34)CC2)c(F)n1 (stereo not shown) [Compound 5]	0.15 nM	115.3	17.3 nM	–	–
CCNC(=O)c1ccc(N2CCN(Cc3ccc4c(c3F)NC(=O)N3C[C@@H](C)N=C43)CC2)c(F)n1 [Compound 172]	0.7 nM	–	–	5.7 nM	–
C[C@@H]1CN2C(=O)Nc3c(ccc(CN4CCN(c5ccc(C(=O)NC6CC6)nc5Cl)CC4)c3F)C2=N1 [Compound 201]	1.2 nM	1324	1550 nM	–	–
CNC(=O)c1ccc(N2CCN(Cc3ccc4c(c3F)NC(=O)N3C4=NC[C@@H]3C)CC2)c(C)n1 [Compound 155]	1.46 nM	611.4	893 nM	–	–
CNC(=O)c1ccc(N2CCN(Cc3ccc4c(c3F)NC(=O)N3CCCN=C43)CC2)c(C)n1 [Compound 140]	1.5 nM	–	–	12.8 nM	–
CNC(=O)c1ccc(N2CCN(Cc3ccc4c(c3)NC(=O)N3CCN=C43)CC2)c(F)n1 [Compound 124]	1.07 nM	524.6	561 nM	–	–
CNC(=O)c1ccc(N2CCN(Cc3ccc4c(c3F)NC(=O)N3CCN=C43)CC2)c(Cl)n1 [Compound 126]	1.3 nM	–	–	5.4 nM	–
CNC(=O)c1ccc(N2CCN(Cc3ccc4c(c3F)NC(=O)N3C[C@@H](C)N=C43)CC2)cn1 [Compound 193]	1.7 nM	–	–	–	–
CNC(=O)c1ccc(N2CCN(Cc3ccc4c(c3F)NC(=O)N3CC(C)(C)N=C43)CC2)c(F)n1 [Compound 136]	11.3 nM	785	8870 nM	–	–
CNC(=O)c1ccc(N2CCN(Cc3ccc4c([nH]c(=O)c5cscc54)c3F)CC2)c(F)n1 [Compound 80]	0.85 nM	–	–	–	–
CNC(=O)c1ccc(N2CCN(C(C)c3ccc4c(c3F)NC(=O)N3CC5(CC5)N=C43)CC2)c(F)n1 (stereo not shown) [Compound 173]	0.95 nM	541.5	514 nM	–	–
CNC(=O)c1ccc(N2CCN(Cc3ccc4c(c3F)NC(=O)N3CCN=C43)CC2)c(C)n1 [Compound 129]	–	–	–	< 1.52 nM	–
CCNC(=O)c1ccc(N2CCN(Cc3ccc4c(c3F)NC(=O)N3CCCN=C43)CC2)c(F)n1 [Compound 171]	0.7 nM	–	–	–	–
CNC(=O)c1ccc(N2CCN(Cc3ccc4c(c3F)NC(=O)N3C[C@H](F)CN=C43)CC2)c(C)n1 [Compound 145]	0.6 nM	–	–	8.9 nM	–
CNC(=O)c1ccc(N2CCN(Cc3ccc4c(c3F)NC(=O)N3C[C@@H](F)CN=C43)CC2)c(F)n1 [Compound 149]	1.6 nM	557.9	–	–	893 nM
CNC(=O)c1ccc(N2CCN(Cc3ccc4c(c3F)NC(=O)N3CC(F)(F)CN=C43)CC2)c(F)n1 [Compound 148]	–	–	–	3.6 nM	–
